Experimental data as given in ChEMBL document CHEMBL1201862, “PubChem BioAssay data set” (2004).
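Growth conditions: 96-well plates. Treatment: test compound, 48 hours, 5 concentrations. Analysis: linear interpolation between bracketing concentrations; unreached endpoints set to highest concentration. GI50: concentration for 50% inhibition of growth.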 Activity calls are given as the source filed them. No stated cut-off is given here; in the data, active = GI50 up to about 1.1 µM and inactive = higher.

Tests used:
Test in all cases: NCI tumour cell line growth inhibition, 48 h
UO-31 = system: UO-31
BT-549 = system: BT-549
SK-MEL-28 = system: SK-MEL-28
A549 = system: A549
DU-145 = system: DU-145
HOP-92 = system: HOP-92
SNB-75 = system: SNB-75
OVCAR-4 = system: OVCAR-4
KM12 = system: KM12
NCI/ADR-RES = system: NCI/ADR-RES
M14 = system: M14
RXF 393 = system: RXF 393
TK-10 = system: TK-10
UACC-62 = system: UACC-62
MDA-N = system: MDA-N
A498 = system: A498
HOP-62 = system: HOP-62
SK-MEL-2 = system: SK-MEL-2
IGROV-1 = system: IGROV-1
HL-60 = system: HL-60

Row | Structure (SMILES) | GI50 (UO-31) | GI50 (BT-549) | GI50 (SK-MEL-28) | GI50 (A549) | GI50 (DU-145) | GI50 (HOP-92) | GI50 (SNB-75) | GI50 (OVCAR-4) | GI50 (KM12) | GI50 (NCI/ADR-RES) | GI50 (M14) | GI50 (RXF 393) | GI50 (TK-10) | GI50 (UACC-62) | GI50 (MDA-N) | GI50 (A498) | GI50 (HOP-62) | GI50 (SK-MEL-2) | GI50 (IGROV-1) | GI50 (HL-60)
1 | CNc1ncnc2c1cnn2COCC(O)CO (stereo not drawn) | > 100 µM (inactive) | > 100 µM (inactive) | > 100 µM (inactive) | > 100 µM (inactive) | > 100 µM (inactive) | > 100 µM (inactive) | > 100 µM (inactive) | > 100 µM (inactive) | > 100 µM (inactive) | > 100 µM (inactive) | > 100 µM (inactive) | > 100 µM (inactive) | > 100 µM (inactive) | > 100 µM (inactive) | > 100 µM (inactive) | > 100 µM (inactive) | > 100 µM (inactive) | > 100 µM (inactive) | > 100 µM (inactive) | 
2 | O=C(O)CSc1nnc2c3ccccc3c3ccccc3c2n1 | 33.6 µM (inactive) | > 100 µM (inactive) | > 100 µM (inactive) | 49.5 µM (inactive) | 57.9 µM (inactive) | > 100 µM (inactive) | 36.6 µM (inactive) | 45.6 µM (inactive) | 42 µM (inactive) | > 100 µM (inactive) | 47.1 µM (inactive) | 57.9 µM (inactive) | > 100 µM (inactive) | 61.9 µM (inactive) | 73.8 µM (inactive) | > 100 µM (inactive) | 46 µM (inactive) | > 100 µM (inactive) | 55.6 µM (inactive) | 
3 | CCOC(=O)NN(C(=O)OCC)C(C(=O)C1=CCCCC1)N(NC(=O)OCC)C(=O)OCC | > 100 µM (inactive) | > 100 µM (inactive) | > 100 µM (inactive) | > 100 µM (inactive) | > 100 µM (inactive) | > 100 µM (inactive) | > 100 µM (inactive) | > 100 µM (inactive) | > 100 µM (inactive) | > 100 µM (inactive) | > 100 µM (inactive) | > 100 µM (inactive) | > 100 µM (inactive) |  | > 100 µM (inactive) | 22.6 µM (inactive) | > 100 µM (inactive) | > 100 µM (inactive) | > 100 µM (inactive) | 
4 | S=C1/C(=N/c2ccccc2)N(c2ccccc2)/C(=N\c2cccc[n+]2Cc2ccccc2)N1c1ccccc1 | 16.4 µM (inactive) | 14.3 µM (inactive) | 17.6 µM (inactive) | 20.9 µM (inactive) | 28.1 µM (inactive) | 16.6 µM (inactive) | < 0.01 µM (active) |  | 16.6 µM (inactive) | 39.9 µM (inactive) | 12.9 µM (inactive) | 13.4 µM (inactive) | 26.3 µM (inactive) | 11.9 µM (inactive) | 11.5 µM (inactive) |  | 13 µM (inactive) | 24.3 µM (inactive) | 22.5 µM (inactive) | 
5 | [N-]=[N+]=Nc1c(-c2ccccc2)c(Cl)nc2ccccc12 | 15.5 µM (inactive) | 23.2 µM (inactive) | 58.7 µM (inactive) | 29.9 µM (inactive) |  | 22 µM (inactive) | 29.9 µM (inactive) | 21.9 µM (inactive) | 19.1 µM (inactive) | 34.8 µM (inactive) | 46 µM (inactive) | 51.6 µM (inactive) | 74.5 µM (inactive) |  | 27 µM (inactive) | 27.5 µM (inactive) | 34.1 µM (inactive) | 58.3 µM (inactive) | 39.5 µM (inactive) | 56.2 µM (inactive)
6 | O=P1(Oc2ccccc2)NCc2ncccc2O1 (stereo not drawn) | > 100 µM (inactive) | > 100 µM (inactive) | > 100 µM (inactive) | > 100 µM (inactive) | > 100 µM (inactive) | > 100 µM (inactive) | > 100 µM (inactive) | > 100 µM (inactive) | > 100 µM (inactive) | > 100 µM (inactive) | > 100 µM (inactive) | > 100 µM (inactive) |  | > 100 µM (inactive) | > 100 µM (inactive) | > 100 µM (inactive) | > 100 µM (inactive) | > 100 µM (inactive) | > 100 µM (inactive) | 
7 | CCn1c(=O)c2c3ccc(OC(C)=O)cc3[nH]c2c2ccc(OC(C)=O)cc21 | 44.1 µM (inactive) | 72.3 µM (inactive) | 49.2 µM (inactive) | 64.7 µM (inactive) | 18.5 µM (inactive) | 43.5 µM (inactive) | 10.1 µM (inactive) | 57.4 µM (inactive) | 34.7 µM (inactive) | > 100 µM (inactive) | 45.3 µM (inactive) | 34.2 µM (inactive) | 51.5 µM (inactive) | 24.1 µM (inactive) | 35.2 µM (inactive) |  | 58.1 µM (inactive) |  | 53.1 µM (inactive) | 
8 | COc1cc2c(c(OC)c1OC)-c1c(cc3c(c1OC)OCO3)CC(C)C(C)(O)C2OC(=O)c1ccccc1 (stereo not drawn) | 21.1 µM (inactive) | 56.1 µM (inactive) | 63.7 µM (inactive) | 42.1 µM (inactive) | 69.8 µM (inactive) | 12.2 µM (inactive) | 41 µM (inactive) | 35.3 µM (inactive) | 41.1 µM (inactive) |  | 34.4 µM (inactive) | 27.9 µM (inactive) | 96.2 µM (inactive) | 56 µM (inactive) | 60.7 µM (inactive) | 39.8 µM (inactive) | > 100 µM (inactive) | 25 µM (inactive) | 38.3 µM (inactive) | 19.5 µM (inactive)
9 | c1ccc(C(=NNc2nc3ccccc3[nH]2)c2ccccn2)nc1 | 0.0847 µM (active) | 0.48 µM (active) | 0.185 µM (active) | 0.3 µM (active) | 0.268 µM (active) | 0.0232 µM (active) | 0.218 µM (active) | 0.0592 µM (active) | 0.298 µM (active) | 0.115 µM (active) | 0.126 µM (active) | 0.197 µM (active) | 0.121 µM (active) | 0.222 µM (active) | 0.394 µM (active) | 0.36 µM (active) | 0.207 µM (active) | 12.9 µM (inactive) | 0.112 µM (active) | 
10 | CCCN(CCC)C1CCc2c(ccc3cc[nH]c23)C1 (stereo not drawn) | 49 µM (inactive) | > 100 µM (inactive) | 31.9 µM (inactive) | > 100 µM (inactive) | > 100 µM (inactive) | 27.7 µM (inactive) | 25.6 µM (inactive) | > 100 µM (inactive) | 60.4 µM (inactive) | > 100 µM (inactive) | 17.7 µM (inactive) | > 100 µM (inactive) | > 100 µM (inactive) | 50.9 µM (inactive) | > 100 µM (inactive) | > 100 µM (inactive) | > 100 µM (inactive) | > 100 µM (inactive) | 62.7 µM (inactive) | 
11 | O=C1CC(c2cccc(F)c2)Nc2cc3c(cc21)OCO3 (stereo not drawn) | 0.0422 µM (active) | > 10 µM (inactive) |  | 0.0363 µM (active) | 0.0385 µM (active) | 0.531 µM (active) |  | 1.8 µM (inactive) | 0.0463 µM (active) | 0.027 µM (active) | 0.0267 µM (active) | 0.0247 µM (active) | 1.13 µM (inactive) | 0.0543 µM (active) | 0.0113 µM (active) | < 0.01 µM (active) | 7.38 µM (inactive) | 0.0356 µM (active) | 0.0483 µM (active) | 
12 | Fc1cc(-c2ncc(Cl)cc2Cl)c2cccccc1-2 | > 100 µM (inactive) | > 100 µM (inactive) |  | > 100 µM (inactive) | > 100 µM (inactive) |  | > 100 µM (inactive) |  | > 100 µM (inactive) | > 100 µM (inactive) | 82.6 µM (inactive) | 92.5 µM (inactive) | > 100 µM (inactive) | > 100 µM (inactive) | > 100 µM (inactive) |  | > 100 µM (inactive) |  | > 100 µM (inactive) | 
13 | COc1ccc2[nH]c3c(c2c1)CCc1c(OC)cccc1-3 | > 100 µM (inactive) | > 100 µM (inactive) | > 100 µM (inactive) | > 100 µM (inactive) | > 100 µM (inactive) | > 100 µM (inactive) | 70 µM (inactive) | 40.3 µM (inactive) | > 100 µM (inactive) | > 100 µM (inactive) | > 100 µM (inactive) |  | > 100 µM (inactive) | > 100 µM (inactive) | > 100 µM (inactive) | > 100 µM (inactive) | 53.8 µM (inactive) | > 100 µM (inactive) | > 100 µM (inactive) | 
14 | O=C(Nc1cc2c(=O)[nH]c3ccccc3c2oc1=O)c1cnccn1 | 80.9 µM (inactive) | > 100 µM (inactive) | > 100 µM (inactive) | > 100 µM (inactive) | > 100 µM (inactive) | > 100 µM (inactive) | > 100 µM (inactive) | > 100 µM (inactive) | > 100 µM (inactive) | > 100 µM (inactive) | > 100 µM (inactive) | > 100 µM (inactive) | > 100 µM (inactive) | > 100 µM (inactive) | > 100 µM (inactive) |  |  | > 100 µM (inactive) | > 100 µM (inactive) | 
15 | COc1ccc(N2C(=O)C3c4[nH]c5ccc(F)cc5c4C4CCC(c5ccccc5)CC4C3C2=O)cc1 (stereo not drawn) | 21.4 µM (inactive) | 17.3 µM (inactive) | 13.5 µM (inactive) | 11.6 µM (inactive) | 66.2 µM (inactive) | 14.5 µM (inactive) | 12.5 µM (inactive) | 12.7 µM (inactive) | 20.7 µM (inactive) | 45.9 µM (inactive) | 12.9 µM (inactive) |  | 21.9 µM (inactive) | 11.9 µM (inactive) | 27.4 µM (inactive) | 15.7 µM (inactive) | 14.3 µM (inactive) | 21.8 µM (inactive) | 20.1 µM (inactive) | 
16 | [N-]=[N+]=CC(=O)OC1CCOCC1 | > 100 µM (inactive) | > 100 µM (inactive) | > 100 µM (inactive) |  | > 100 µM (inactive) | > 100 µM (inactive) |  | > 100 µM (inactive) | > 100 µM (inactive) |  |  | > 100 µM (inactive) | > 100 µM (inactive) | > 100 µM (inactive) | > 100 µM (inactive) | > 100 µM (inactive) | > 100 µM (inactive) | > 100 µM (inactive) | > 100 µM (inactive) | > 100 µM (inactive)
